The results in this text go back to US8222218B2, “Cyclopropanated carbohydrates” (Seton Hall University, priority 2008, dated 2012).

The structures appear in SMILES notation. Read-outs that look alike come from different tables or passages of the source.

A short description of data set [1]: Acute toxicity, minimal motor impairment (rotorod), mice. It counts as in vivo. The note with it: mice, rotorod. The gist of the method:
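Mice placed on a rod rotating at 6 rpm; a compound is scored toxic when the animal falls off three times within 1 min. In rats, minimal motor deficit is scored as ataxia, an abnormal uncoordinated gait.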
Background: The rotarod test checks motor coordination on a turning rod.

Another data set relates to MES-induced seizures. Briefly: Maximal Electroshock Seizure (MES) test, mice. The note with it: Mus musculus, ip, mice, i.p. It counts as in vivo. The gist of the method:
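Seizures were induced by a 60 Hz corneal current for 2 s (50 mA in CF1 mice, 150 mA in Sprague-Dawley rats). Mice received 30, 100 or 300 mg/kg i.p. in 0.5% methylcellulose and were tested at several intervals; rats received 30 mg/kg p.o. Protection means abolition of hind-limb tonic extension.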

Regarding `CCOC(=O)C1[C@@H]2[C@@H](O)[C@@H]3O[C@H](c4ccc(OC)cc4)OC[C@H]3O[C@H]12` (stereo partly drawn) [Compound 16, ethyl (2R,4aR,5aS,6aR,7R,7aS)-7-hydroxy-2-(4-methoxyphenyl)hexahydro-4H-cyclopropa[5,6]pyrano[3,2-d][1,3]dioxine-6-carboxylate], in data set [1] (30 mg/kg, 0.5 h), the “TOX 30 0.5 h (animals toxic/tested)” value is recorded as 0/4. Further, the “TOX 30 4 h (animals toxic/tested)” value in data set [1] (30 mg/kg, 4 h) was 0/2. Moreover, in data set [1] (100 mg/kg, 0.5 h), the “TOX 100 0.5 h (animals toxic/tested)” value is 2/8. The “TOX 100 4 h (animals toxic/tested)” value in data set [1] (100 mg/kg, 4 h) was 0/4. Moreover, in data set [1] (300 mg/kg, 0.5 h), the “TOX 300 0.5 h (animals toxic/tested)” value was 3/4. Also, the “TOX 300 4 h (animals toxic/tested)” value in data set [1] (300 mg/kg, 4 h) was 1/2. Moreover, the responders at 30 mg/kg in the data set on MES-induced seizures (0.5 h, read-out: MES 30 0.5 h (animals protected/tested)) was determined as 0%; in the data set on MES-induced seizures (4 h, read-out: MES 30 4 h (animals protected/tested)), 0%. The responders at 100 mg/kg with MES-induced seizures (0.5 h, read-out: MES 100 0.5 h (animals protected/tested)) was found to be 0%; in the data set on MES-induced seizures (4 h, read-out: MES 100 4 h (animals protected/tested)), 0%. In addition, the responders at 300 mg/kg amounted to 0% in the data set on MES-induced seizures (0.5 h, read-out: MES 300 0.5 h (animals protected/tested)) and 0% with MES-induced seizures (4 h, read-out: MES 300 4 h (animals protected/tested)).
